≈ marks a conversion by molar mass, not a printed value.
Key:
Bacillus subtilis = assay: Antimicrobial activity against Bacillus subtilis CGMCC1.1162 after 24 hrs by modified microdilution method; format: functional; conditions: CGMCC1.1162, 24 h
Staphylococcus aureus = assay: Antimicrobial activity against Staphylococcus aureus CGMCC1.1361 after 24 hrs by modified microdilution method; format: functional; conditions: CGMCC1.1361, 24 h
Escherichia coli = assay: Antimicrobial activity against Escherichia coli CGMCC1.1571 after 24 hrs by modified microdilution method; format: functional; conditions: CGMCC1.1571, 24 h
Pseudomonas fluorescens = assay: Antimicrobial activity against Pseudomonas fluorescens CGMCC1.1828 after 24 hrs by modified microdilution method; format: functional; conditions: CGMCC1.1828, 24 h
Aspergillus niger = assay: Antimicrobial activity against Aspergillus niger CGMCC3.316 after 48 hrs by modified microdilution method; format: functional; conditions: CGMCC3.316, 48 h
Candida albicans = assay: Antimicrobial activity against Candida albicans CGMCC2.2086 after 48 hrs by modified microdilution method; format: functional; conditions: CGMCC2.2086, 48 h
Candida tropicalis = assay: Antimicrobial activity against Candida tropicalis CGMCC2.3967 after 48 hrs by modified microdilution method; format: functional; conditions: CGMCC2.3967, 48 h
[1] = Cytotoxicity against human […] cells assessed as cell survival after 48 hrs by MTT assay; format: functional, cell-based
HepG2 = assay: Cytotoxicity against human HepG2 cells assessed as cell survival after 48 hrs by MTT assay; format: functional, cell-based; conditions: HepG2, 48 h

SMILES	MIC (Bacillus subtilis) [µg/mL]	MIC (Staphylococcus aureus) [µg/mL]	MIC (Escherichia coli) [µg/mL]	MIC (Pseudomonas fluorescens) [µg/mL]	MIC (Aspergillus niger) [µg/mL]	MIC (Candida albicans) [µg/mL]	MIC (Candida tropicalis) [µg/mL]	IC50 [1] [µM]	IC50 (HepG2) [µM]
C[C@H]1[C@H](C)CC[C@]2(C(=O)O)CC[C@]3(C)C(=CC[C@@H]4[C@@]5(C)Cc6c([nH]c7ccc(Cl)cc67)C(C)(C)[C@@H]5CC[C@]43C)[C@H]12	31.2 (≈ 55.5 µM)	31.2 (≈ 55.5 µM)	31.2 (≈ 55.5 µM)	31.2 (≈ 55.5 µM)	> 100	> 100	> 100	29.9	30.9
C[C@H]1[C@H](C)CC[C@]2(C(=O)O)CC[C@]3(C)C(=CC[C@@H]4[C@@]5(C)Cc6c([nH]c7ccc(Br)cc67)C(C)(C)[C@@H]5CC[C@]43C)[C@H]12	31.2 (≈ 51.4 µM)	62.5 (≈ 103 µM)	62.5 (≈ 103 µM)	62.5 (≈ 103 µM)	31.2 (≈ 51.4 µM)	62.5 (≈ 103 µM)	62.5 (≈ 103 µM)	62.6	38.4
Cc1ccc2[nH]c3c(c2c1)C[C@]1(C)[C@H]2CC=C4[C@@H]5[C@@H](C)[C@H](C)CC[C@]5(C(=O)O)CC[C@@]4(C)[C@]2(C)CC[C@H]1C3(C)C	62.5 (≈ 115 µM)	62.5 (≈ 115 µM)	31.2 (≈ 57.6 µM)	62.5 (≈ 115 µM)	> 100	> 100	> 100	13.8	17
COc1ccc2[nH]c3c(c2c1)C[C@]1(C)[C@H]2CC=C4[C@@H]5[C@@H](C)[C@H](C)CC[C@]5(C(=O)O)CC[C@@]4(C)[C@]2(C)CC[C@H]1C3(C)C	31.2 (≈ 55.9 µM)	31.2 (≈ 55.9 µM)	31.2 (≈ 55.9 µM)	62.5 (≈ 112 µM)	> 100	> 100	62.5 (≈ 112 µM)	31.7	34.6
COc1cccc2c3c([nH]c12)C(C)(C)[C@@H]1CC[C@]2(C)[C@H](CC=C4[C@@H]5[C@@H](C)[C@H](C)CC[C@]5(C(=O)O)CC[C@]42C)[C@@]1(C)C3	62.5 (≈ 112 µM)	62.5 (≈ 112 µM)	62.5 (≈ 112 µM)	62.5 (≈ 112 µM)	> 100	> 100	> 100	> 100	> 100
CCOc1ccc2[nH]c3c(c2c1)C[C@]1(C)[C@H]2CC=C4[C@@H]5[C@@H](C)[C@H](C)CC[C@]5(C(=O)O)CC[C@@]4(C)[C@]2(C)CC[C@H]1C3(C)C	62.5 (≈ 109 µM)	62.5 (≈ 109 µM)	62.5 (≈ 109 µM)	62.5 (≈ 109 µM)	> 100	> 100	> 100	24.5	33
COC(=O)[C@]12CC[C@@H](C)[C@H](C)[C@H]1C1=CC[C@@H]3[C@@]4(C)Cc5c([nH]c6ccccc56)C(C)(C)[C@@H]4CC[C@@]3(C)[C@]1(C)CC2	31.2 (≈ 57.6 µM)	15.6 (≈ 28.8 µM)	31.2 (≈ 57.6 µM)	62.5 (≈ 115 µM)	62.5 (≈ 115 µM)	62.5 (≈ 115 µM)	62.5 (≈ 115 µM)	> 100	> 100
COC(=O)[C@]12CC[C@@H](C)[C@H](C)[C@H]1C1=CC[C@@H]3[C@@]4(C)Cc5c([nH]c6ccc(F)cc56)C(C)(C)[C@@H]4CC[C@@]3(C)[C@]1(C)CC2	31.2 (≈ 55.7 µM)	15.6 (≈ 27.9 µM)	31.2 (≈ 55.7 µM)	31.2 (≈ 55.7 µM)	62.5 (≈ 112 µM)	62.5 (≈ 112 µM)	62.5 (≈ 112 µM)	> 100	97
COC(=O)[C@]12CC[C@@H](C)[C@H](C)[C@H]1C1=CC[C@@H]3[C@@]4(C)Cc5c([nH]c6ccc(Cl)cc56)C(C)(C)[C@@H]4CC[C@@]3(C)[C@]1(C)CC2	31.2 (≈ 54.1 µM)	62.5 (≈ 108 µM)	> 100	62.5 (≈ 108 µM)	62.5 (≈ 108 µM)	> 100	> 100	> 100	> 100
COC(=O)[C@]12CC[C@@H](C)[C@H](C)[C@H]1C1=CC[C@@H]3[C@@]4(C)Cc5c([nH]c6ccc(Br)cc56)C(C)(C)[C@@H]4CC[C@@]3(C)[C@]1(C)CC2	62.5 (≈ 101 µM)	31.2 (≈ 50.3 µM)	> 100	62.5 (≈ 101 µM)	> 100	> 100	> 100	> 100	> 100
COC(=O)[C@]12CC[C@@H](C)[C@H](C)[C@H]1C1=CC[C@@H]3[C@@]4(C)Cc5c([nH]c6ccc(C)cc56)C(C)(C)[C@@H]4CC[C@@]3(C)[C@]1(C)CC2	31.2 (≈ 56.1 µM)	31.2 (≈ 56.1 µM)	> 100	62.5 (≈ 112 µM)	31.2 (≈ 56.1 µM)	> 100	62.5 (≈ 112 µM)	> 100	> 100
COC(=O)[C@]12CC[C@@H](C)[C@H](C)[C@H]1C1=CC[C@@H]3[C@@]4(C)Cc5c([nH]c6ccc(OC)cc56)C(C)(C)[C@@H]4CC[C@@]3(C)[C@]1(C)CC2	31.2 (≈ 54.6 µM)	31.2 (≈ 54.6 µM)	62.5 (≈ 109 µM)	> 100	> 100	> 100	> 100	> 100	> 100

From ChEMBL document CHEMBL3351749, “Synthesis, in vitro antimicrobial and cytotoxic activities of new carbazole derivatives of ursolic acid” (Bioorg Med Chem Lett, 2015)
